According to patent US9914732B2, “Diazabicyclo[4.3.1]decane derivatives for treatment of psychiatric disorders” (Max-Planck-Gesellschaft zur Forderung der Wissenschaften …, priority 2014, dated 2018):
pKi: −log10 of the molar value.

What was measured:
[1] = tested on: N2a cells; test: N2a cellular assay (neurite outgrowth); format: cell-based; details: N2a neuroblastoma cells, FIG. 1
Method: FK506 analogs have repeatedly been described as neuroprotective and […] agents in the prior arts.
Example 12: N2a Cellular Assay
At day one N2a cells were plated into 24-well plates with cover slips (pretreated with polylysine) at a density of 35,000 cells/well and cultured with DMEM (incl. FCS 10% and Pen/Strep 1%) for 24 h. Next, cells were transfected with 80 ng expression plasmids encoding Venus as well as 720 ng pRK5 (mock transfection) in a total volume of 500 μl starvation media containing different concentrations of compounds or DMSO for 36 h (media without FCS; induction of neurite outgrowth). Therefore media was removed and replaced by 400 μl DMEM (empty). Next an equivalent volume of plasmids were given to 50 μl OPTIMEM and incubated for 5 min at RT. Additionally 1.5 μl Lipofectamine 2000 was separately dissolved in 50 μl OPTIMEM. After 5 min both solutions (plasmids and Lipofectamine 2000 containing media) were combined and incubated again for another 20 min. After that 100 μl of this mixture was given to 400 μl media per well. (See also protocol of the provider—Life Technologies).
On the next day cells were washed with PBS and incubated for 30 min with 300 μl PFA (4%) and sucrose (5%) to fix cells. After fixation cells were washed three times, mounted onto microscope slides using 4 μl Vectashield (mounting media) and analyzed by fluorescence microscopy. […]

[2] = target: T1, FKBP51 (Homo sapiens, UniProt Q13451); test: Fluorescence polarization (FP) assay, binding to the FK506-binding domain of FKBP51; details: FK506-binding domain of FKBP51 (FKBP51FK1), competition with fluorescent ligand 2b
T1 sequence (Q13451 42-130 limits assumed): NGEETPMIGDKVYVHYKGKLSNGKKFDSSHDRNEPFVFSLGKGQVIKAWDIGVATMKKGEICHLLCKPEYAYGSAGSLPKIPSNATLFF
Method in brief: (§1)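 Competitive FP with fluorescent ligand 2b at 20 nM (2× concentration) and FK1 domain at 280 nM (FKBP51) or 400 nM (FKBP52) in 20 mM HEPES pH 8, 0.01% Triton-X100. Anisotropy read after 30 min at room temperature (ex 485, em 535 nm), in duplicate; IC50 by four-parameter fit, Ki via Wang competitive equation.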

[3] = target: T2, FKBP52 (Homo sapiens, UniProt Q02790); test: Fluorescence polarization (FP) assay, binding to the FK506-binding domain of FKBP52; details: FK506-binding domain of FKBP52 (FKBP52FK1), competition with fluorescent ligand 2b
T2 sequence (Q02790 50-138 limits assumed): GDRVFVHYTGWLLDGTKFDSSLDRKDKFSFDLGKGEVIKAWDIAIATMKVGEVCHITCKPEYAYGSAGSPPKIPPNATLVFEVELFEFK
Method in brief: as §1

Row | SMILES | neurite outgrowth [1] | pKi [2] | pKi [3]
1 | COc1ccc(OCCN2C[C@H]([C@H](O)CO)C3CCCC(C2=O)N3S(=O)(=O)c2cc(Cl)cc(Cl)c2)cc1OC (stereo partly drawn) [Compound C2a, (1S,5S,6R)-10-((3,5-dichlorophenyl)sulfonyl)-5-(1,2-dihydroxyethyl)-3-(2-(3,4-dimethoxyphenoxy)ethyl)-3, 10-diazabicyclo[4.3.1]decan-2-one] | potently enhanced neurite outgrowth | – | –
2 | COC[C@H]1CN(Cc2cnn[nH]2)C(=O)[C@@H]2CCC[C@H]1N2S(=O)(=O)c1ccc(NC(C)=O)c(Br)c1 [Compound N22, N-(4-(((1S,5S,6R)-3-((1H-1,2,3-triazol-5-yl)methyl)-5-(methoxymethyl)-2-oxo-3,10-diazabicyclo[4.3.1]decan-10-yl)sulfonyl)-2-bromophenyl)acetamide] | – | ≥ 7.00 | ≥ 7.00
3 | COC[C@H]1CN(Cc2cnn[nH]2)C(=O)[C@@H]2CCC[C@H]1N2S(=O)(=O)c1ccc(NC(C)=O)c(Cl)c1 [Compound N23, N-(4-(((1S,5S,6R)-3-((1H-1,2,3-triazol-5-yl)methyl)-5-(methoxymethyl)-2-oxo-3,10-diazabicyclo[4.3.1]decan-10-yl)sulfonyl)-2-chlorophenyl)acetamide] | – | ≥ 7.00 | ≥ 7.00
4 | COC[C@H]1CN(Cc2cnn[nH]2)C(=O)[C@@H]2CCC[C@H]1N2S(=O)(=O)c1cc(Cl)c(NC(C)=O)c(Cl)c1 [Compound N24, N-(4-(((1S,5S,6R)-3-((1H-1,2,3-triazol-5-yl)methyl)-5-(methoxymethyl)-2-oxo-3,10-diazabicyclo[4.3.1]decan-10-yl)sulfonyl)-2,6-dichlorophenyl)acetamide] | – | ≥ 7.00 | ≥ 7.00
5 | COC[C@H]1CN(Cc2cnn[nH]2)C(=O)[C@@H]2CCC[C@H]1N2S(=O)(=O)c1cccnc1 [Compound N25, (1S,5S,6R)-3-((1H-1,2,3-triazol-5-yl)methyl)-5-(methoxymethyl)-10-(pyridin-3-ylsulfonyl)-3,10-diazabicyclo[4.3.1]decan-2-one] | – | ≥ 7.00 | ≥ 7.00
6 | COC[C@H]1CN(Cc2cnn[nH]2)C(=O)[C@@H]2CCC[C@H]1N2S(=O)(=O)c1ccc(-c2ccccc2)nc1 [Compound N26, (1S,5S,6R)-3-((1H-1,2,3-triazol-5-yl)methyl)-5-(methoxymethyl)-10-((6-phenylpyridin-3-yl)sulfonyl)-3,10-diazabicyclo[4.3.1]decan-2-one] | – | ≥ 7.00 | ≥ 7.00
7 | COC[C@H]1CN(Cc2cnn[nH]2)C(=O)[C@@H]2CCC[C@H]1N2S(=O)(=O)c1ccc(-c2ncccn2)cc1 [Compound N27, (1S,5S,6R)-3-((1H-1,2,3-triazol-5-yl)methyl)-5-(methoxymethyl)-10-((4-(pyrimidin-2-yl)phenyl)sulfonyl)-3,10-diazabicyclo[4.3.1]decan-2-one] | – | ≥ 7.00 | ≥ 7.00
8 | COC[C@H]1CN(Cc2cnn[nH]2)C(=O)[C@@H]2CCC[C@H]1N2S(=O)(=O)c1nc2ccccc2[nH]1 [Compound N28, (1S,5S,6R)-3-((1H-1,2,3-triazol-5-yl)methyl)-10-((1H-benzo[d]imidazol-2-yl)sulfonyl)-5-(methoxymethyl)-3,10-diazabicyclo[4.3.1]decan-2-one] | – | ≥ 7.00 | ≥ 7.00
9 | COC[C@H]1CN(Cc2cnnn2Cc2ccccc2)C(=O)[C@@H]2CCC[C@H]1N2S(=O)(=O)c1cccc(F)c1 [Compound N30, (1S,5S,6R)-3-((1-benzyl-1H-1,2,3-triazol-5-yl)methyl)-10-((3-fluorophenyl)sulfonyl)-5-(methoxymethyl)-3,10-diazabicyclo[4.3.1]decan-2-one] | – | 6.30 to 7.00 | 6.30 to 7.00
10 | COC[C@H]1CN(Cc2cnnn2C(=O)c2ccccc2)C(=O)[C@@H]2CCC[C@H]1N2S(=O)(=O)c1cccc(F)c1 [Compound N31, (1S,5S,6R)-3-((1-benzoyl-1H-1,2,3-triazol-5-yl)methyl)-10-((3-fluorophenyl)sulfonyl)-5-(methoxymethyl)-3,10-diazabicyclo[4.3.1]decan-2-one] | – | 6.30 to 7.00 | 6.30 to 7.00
11 | COC[C@H]1CN(Cc2cnnn2S(=O)(=O)c2ccccc2)C(=O)[C@@H]2CCC[C@H]1N2S(=O)(=O)c1cccc(F)c1 [Compound N32, (1S,5S,6R)-10-((3-fluorophenyl)sulfonyl)-5-(methoxymethyl)-3-((1-(phenylsulfonyl)-1H-1,2,3-triazol-5-yl)methyl)-3,10-diazabicyclo[4.3.1]decan-2-one] | – | 6.30 to 7.00 | 6.30 to 7.00
12 | COc1ccc(OCCN2CCC3CCCC(C2=O)N3S(=O)(=O)c2cc(Cl)cc(Cl)c2)cc1OC (centres unmarked) [Ref. 1, reference compound] | – | 5.30 to 6.00 | 5.30 to 6.00
13 | COc1ccc(OCCN2CCC3CCCC(C2=O)N3S(=O)(=O)c2ccc3ncsc3c2)cc1OC (centres unmarked) [Ref. 2, reference compound] | – | 5.30 to 6.00 | 5.30 to 6.00
14 | COc1ccc(OCCN2CCC3CCCC(C2=O)N3S(=O)(=O)c2cc(Cl)c(O)c(Cl)c2)cc1OC (centres unmarked) [Ref. 3, reference compound] | – | 5.30 to 6.00 | 5.30 to 6.00
15 | O=C1NCCC2CCCC1N2S(=O)(=O)c1ccc2sc(=O)[nH]c2c1 (centres unmarked) [Ref. 4, reference compound] | – | < 5.30 | < 5.30
